What was measured:
[1] = tested on: HuH-7 cells (dendriform cell strain of human hepatoma); assay: Measurement of antitumor effect: HuH-7 carcinoma pieces hypodermically implanted in nude mice, carcinomas weighed after administration; type: in vivo; settings: Huh-7, ip, 504 h, carcinoma weight relative to control group (100%), 250 μg/mouse intraperitoneally in corn oil once per day for 3 weeks, starting a week after implantation
Experimental: Measurement of Antitumor Effect
(§1) Carcinoma of HuH-7 cells (dendriform cell strain of human hepatoma) hypodermically implanted or subimplanted in the backs of 5-weeks old female nude mice (BALB/c, Ninox) was aseptically taken out and crushed into 5×5 mm sized pieces in a phosphate buffer solution (PBS), a piece of which then being hypodermically implanted in the backs of the nude mice.
(§2) Each test substance was dissolved in corn oil, and the solution was intraperitoneally administered to the nude mice consecutively once per day at a rate of 250 μg/mouse for 3 weeks, starting from a week after the implantation. After termination of the administration, the carcinomas were taken out and weighed to calculate the antitumor effect and the mice' weight loss by the following equations. For the test six mice per group were used, and the group administered with the solvent (corn oil) alone was made the control group:
(§3) Evaluations of antitumor effect and weight loss were conducted according to the following standard, where the control group values were held to be 100%.
• −: >100%, +/−: 100˜75%, +: 75˜50%, ++: 50˜25%, +++: 25˜0% Weight Loss • −: >110%, +/−: 110˜100%, +: 100˜95%, ++: 95˜90%, +++: <90% Death Rate (Death Rate During the Test Period) • −: none • +/−: death occurred with high concentration administration (500 μg/mouse) • +: 1-3 mice dead • ++: 3-5 mice dead • +++: all 6 mice dead Synthetic Evaluation • −: weak antitumor effect and very strong toxicity against host mice • +/−: weak antitumor effect recognizable and toxicity against host mice also observable • +: a fixed level of antitumor effect observable but toxicity against host mice also strong • ++: strong antitumor effect observed and toxicity against host mice week • +++: strong antitumor effect observed and no toxicity against host mice

[2] = Toxicity against host mice (weight loss, death rate) in the HuH-7 antitumor test; type: in vivo; settings: 250 μg/mouse intraperitoneally once per day for 3 weeks, six mice per group; for Toxicity Death rate: death rate during the test period; for Toxicity Weight loss: mouse weight relative to control group (100%)
Experimental: as §1, §2, §3

CC(C)=CCC/C(C)=C/C(=O)NC1C(O)OC(CO)C(O)C1O (stereo not drawn)
response vs control in vivo at 0.25 mg [1]: 0 to 25%
Toxicity Death rate [2]: −
Toxicity Weight loss [2]: + (100˜95%)

CC(O)(CCO)CC(=O)NC1C(O)OC(CO)C(O)C1O (stereo not drawn)
response vs control in vivo at 0.25 mg [1]: 25 to 50%
Toxicity Death rate [2]: −
Toxicity Weight loss [2]: +/− (110˜100%)

CC(C)=CCC/C(C)=C/CNC(=O)/C=C/C(=O)NC/C=C(\C)CCC=C(C)C [N,N′-digeranylfumaric diamide, N,N′-digeranylfumaric Diamide]
response vs control in vivo at 0.25 mg [1]: 25 to 50%
Toxicity Death rate [2]: −
Toxicity Weight loss [2]: +/− (110˜100%)

CC(C)=CCC/C(C)=C/CNC(=O)CC(O)C(=O)NC/C=C(\C)CCC=C(C)C (stereo not drawn) [N,N′-digeranylmalic diamide, N,N′-digeranylmalic Diamide]
response vs control in vivo at 0.25 mg [1]: 50 to 75%
Toxicity Death rate [2]: −
Toxicity Weight loss [2]: + (100˜95%)

CC(=O)N[C@@H](Cc1ccc(O)cc1)C(=O)NC/C=C(\C)CCC=C(C)C [N-acetyltyrosine geranylamide, N-acetyltyrosine Geranylamide]
response vs control in vivo at 0.25 mg [1]: 50 to 75%
Toxicity Death rate [2]: −
Toxicity Weight loss [2]: +/− (110˜100%)

CC(C)=CCC/C(C)=C/C(=O)NC1C(O)OC(C)C(O)C1O (stereo not drawn) [N-fucosegeranamide]
response vs control in vivo at 0.25 mg [1]: 25 to 50%
Toxicity Death rate [2]: −
Toxicity Weight loss [2]: +/− (110˜100%)

CC(C)=CCC/C(C)=C/C(=O)N[C@@H](Cc1ccc(O)cc1)C(=O)O [N-geranoyltyrosine]
response vs control in vivo at 0.25 mg [1]: 25 to 50%
Toxicity Death rate [2]: −
Toxicity Weight loss [2]: +/− (110˜100%)

CC(C)=CCC/C(C)=C/CNC(=O)C1OC(O)C(O)C(O)C1O (stereo not drawn) [N-geranyl galacturonamide, N-geranylgalacturonamide]
response vs control in vivo at 0.25 mg [1]: 0 to 25%
Toxicity Death rate [2]: +/−
Toxicity Weight loss [2]: +/− (110˜100%)

CC(=O)C(=O)Nc1ccc(C(=O)NC/C=C(\C)CCC=C(C)C)cc1 [N-geranyl-4-pyruvoaminobenzamide, N-geranyl-p-pyruvoaminobenzamide]
response vs control in vivo at 0.25 mg [1]: 25 to 50%
Toxicity Death rate [2]: −
Toxicity Weight loss [2]: − (>110%)

CC(C)=CCC/C(C)=C/CNC(=O)[C@@H](N)Cc1ccc(O)cc1 [Tyrosine geranylamide, Tyrosine Geranylamide]
response vs control in vivo at 0.25 mg [1]: 50 to 75%
Toxicity Death rate [2]: −
Toxicity Weight loss [2]: +/− (110˜100%)
